Reference: patent US8772499B2, “TRPV3 modulators” (AbbVie Inc., priority 2011, dated 2014)
Like-named read-outs stand apart in the source and are kept apart here.

Assays:
human TRPV3 = target: T1, human TRPV3 (Homo sapiens, UniProt Q8NET8); experiment: In vitro antagonism of recombinant human TRPV3 activation (FLIPR Tetra calcium assay); type: cell-based; details: HEK293 cells stably expressing human TRPV3, agonist 2-APB at 80 μM
T1 construct: expressed in transfected cells
T1 sequence (Q8NET8 1-790): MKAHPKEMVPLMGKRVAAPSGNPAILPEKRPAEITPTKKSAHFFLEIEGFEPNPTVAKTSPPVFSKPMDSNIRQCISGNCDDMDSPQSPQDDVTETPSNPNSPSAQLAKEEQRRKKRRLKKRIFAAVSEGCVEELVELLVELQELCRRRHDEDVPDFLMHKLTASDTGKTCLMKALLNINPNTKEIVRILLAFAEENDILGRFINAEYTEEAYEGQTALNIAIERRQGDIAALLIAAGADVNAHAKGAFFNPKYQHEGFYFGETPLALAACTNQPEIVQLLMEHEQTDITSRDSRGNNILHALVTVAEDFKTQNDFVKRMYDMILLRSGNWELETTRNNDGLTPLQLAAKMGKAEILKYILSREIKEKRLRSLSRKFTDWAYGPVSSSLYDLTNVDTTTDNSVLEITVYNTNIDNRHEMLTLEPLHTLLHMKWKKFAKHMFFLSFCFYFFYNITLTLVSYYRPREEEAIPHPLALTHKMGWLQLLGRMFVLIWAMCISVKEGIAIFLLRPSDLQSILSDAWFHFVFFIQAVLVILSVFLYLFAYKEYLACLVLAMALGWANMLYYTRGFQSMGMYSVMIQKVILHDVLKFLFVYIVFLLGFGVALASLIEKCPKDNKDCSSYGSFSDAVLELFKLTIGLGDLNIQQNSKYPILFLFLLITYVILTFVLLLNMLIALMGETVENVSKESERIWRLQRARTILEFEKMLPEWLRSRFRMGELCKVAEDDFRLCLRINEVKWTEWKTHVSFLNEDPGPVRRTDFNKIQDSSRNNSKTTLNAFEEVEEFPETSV
Summary of the method: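 Calcium flux read over a 10 min run: compound added at 10 s to Calcium-4-loaded human TRPV3-HEK293 cells, agonist 2-APB (80 μM, its EC80) after 3 min. IC50 derived from peak-minus-baseline signal as percentage of uninhibited 2-APB response, typically averaged over at least two runs.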

[1] = In vitro human microsomal stability assay; type: in vitro ADME
Summary of the method: (§1)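 Compound incubated at 37 °C with NADPH-supplemented liver microsomes, either human or from Sprague-Dawley rat, to assess metabolic stability.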

[2] = In vitro rat microsomal stability assay; type: in vitro ADME, rat (Sprague-Dawley)
Summary of the method: as §1

[3] = actual measured value shown parenthetically, in most cases average of at least two runs, read-out: IC50
[4] = reported range, read-out: IC50 (range class)
[5] = human, microsomes, 0.5 h, 0.5 μM, pH 7.4
[6] = Sprague-Dawley, rat, microsomes, 0.5 h, 0.5 μM, pH 7.4

Row | Structure (SMILES) | IC50 (human TRPV3; [3]) | IC50 (human TRPV3; [4]) | HUMAN MICROSOMAL STABILITY (% REMAINING AFTER 30 MINUTES) [1, 5] | RAT MICROSOMAL STABILITY (% REMAINING AFTER 30 MINUTES) [2, 6] | HUMAN MICROSOMAL STABILITY (% REMAINING AFTER 30 MINUTES) ([1]; human liver microsomes, 0.5 μM substrate, 0.25 mg/mL microsomal protein, pH 7.4, 37° C., NADPH, 30 minutes) | RAT MICROSOMAL STABILITY (% REMAINING AFTER 30 MINUTES) ([2]; rat liver microsomes (Sprague-Dawley), 0.5 μM substrate, 0.25 mg/mL microsomal protein, pH 7.4, 37° C., NADPH, 30 minutes)
1 | OC(C1CCCc2cccnc21)C1(c2cccc(OC(F)(F)F)c2)CCC1 (stereo not drawn) [Example 187, (anti)-5,6,7,8-tetrahydroquinolin-8-yl{1-[3-(trifluoromethoxy)phenyl]-cyclobutyl}methanol] | > 20 µM | > 20 µM | <0.01% | <0.01% | – | –
2 | OC(c1ccccn1)C1(C2CCOc3ccccc32)CCC1 (stereo not drawn) [Example 57, [1-(3,4-dihydro-2H-chromen-4-yl)cyclobutyl](pyridin-2-yl)methanol] | 9.29 µM | – | 16% | 10% | – | –
3 | CN1CCC(c2ccccc2OC(F)(F)F)(C(O)c2ccccn2)CC1 (stereo not drawn) [Example 149, {1-methyl-4-[2-(trifluoromethoxy)phenyl]piperidin-4-yl}(pyridin-2-yl)-methanol] | 6.2 µM | – | – | – | >85% | 62%
4 | OC(c1ccccn1)C1(c2ccc(C(F)(F)F)cc2)CC2(C1)OCCO2 (stereo not drawn) [Example 161, pyridin-2-yl{2-[4-(trifluoromethyl)phenyl]-5,8-dioxaspiro[3.4]oct-2-yl}-methanol] | 3.27 µM | – | 61% | <0.01% | – | –
5 | OC(c1ccccn1)C1(c2ccnc(C(F)(F)F)c2)CC2(C1)OCCO2 (stereo not drawn) [Example 297, pyridin-2-yl{2-[2-(trifluoromethyl)pyridin-4-yl]-5,8-dioxaspiro[3.4]oct-2-yl}methanol] | > 20 µM | > 20 µM | >85% | 2.0% | – | –
6 | O[C@@H](c1ncccn1)C1(c2ccc(C(F)(F)F)cc2)CCC1 [Example 42, (R)-pyrimidin-2-yl{1-[4-(trifluoromethyl)phenyl]cyclobutyl}methanol] | > 10 µM | – | 50% | 40% | – | –
7 | CC(C)(C)OC(=O)N1CCC(c2ccc(OC(F)(F)F)cc2)(C(O)c2ccccn2)CC1 (stereo not drawn) [Example 157, tert-butyl 4-[hydroxy(pyridin-2-yl)methyl]-4-[4-(trifluoromethoxy)phenyl]-piperidine-1-carboxylate] | > 20 µM | > 20 µM | 28% | 0.93% | – | –
8 | OC(c1ccccn1)C1(c2ccccn2)CCC1 (stereo not drawn) [Example 19, pyridin-2-yl(1-pyridin-2-ylcyclobutyl)methanol] | > 20 µM | > 20 µM | >85% | 76% | – | –
9 | COc1ccc(C(O)C2(c3ccc(Cl)c(Cl)c3)CCC2)nc1 (stereo not drawn) [Example 287, [1-(3,4-dichlorophenyl)cyclobutyl](5-methoxypyridin-2-yl)methanol] | > 20 µM | > 20 µM | 15% | <0.01% | – | –
10 | OC1CC(c2cc(C(F)(F)F)ccn2)([C@H](O)c2ccccn2)C1 (stereo partly drawn) [Example 294, 3-[(S)-hydroxy(pyridin-2-yl)methyl]-3-[4-(trifluoromethyl)pyridin-2-yl]-cyclobutanol] | > 20 µM | > 20 µM | >85% | >85% | – | –
11 | OC(c1ccccn1)C1(c2ccc(F)c(Cl)c2)CC2(C1)OCCO2 (stereo not drawn) [Example 255, [2-(3-chloro-4-fluorophenyl)-5,8-dioxaspiro[3.4]oct-2-yl](pyridin-2-yl)-methanol] | 5.49 µM | – | 54% | <0.01% | – | –
12 | OC(c1ccccn1)C1(Cc2cccc(F)c2)CCC1 (stereo not drawn) [Example 254, [1-(3-fluorobenzyl)cyclobutyl](pyridin-2-yl)methanol] | 4.22 µM | – | 1.1% | 0.57% | – | –
13 | OC(c1ccccn1)C1(C2CCCOC2)CCC1 (stereo not drawn) [Example 281, pyridin-2-yl[1-(tetrahydro-2H-pyran-3-yl)cyclobutyl]methanol] | 7.69 µM | – | >85% | 0.054% | – | –
14 | CC1(O)CC(c2ccnc(C(F)(F)F)c2)(C(O)c2ccccn2)C1 (single isomer, unassigned) [Example 307] | 8.23 µM | – | 73% | >85% | – | –

The next lines start with results.

Row | IC50 (human TRPV3; [3]) | IC50 (human TRPV3; [4]) | HUMAN MICROSOMAL STABILITY (% REMAINING AFTER 30 MINUTES) [1, 5] | RAT MICROSOMAL STABILITY (% REMAINING AFTER 30 MINUTES) [2, 6] | Structure (SMILES) | HUMAN MICROSOMAL STABILITY (% REMAINING AFTER 30 MINUTES) ([1]; human liver microsomes, 0.5 μM substrate, 0.25 mg/mL microsomal protein, pH 7.4, 37° C., NADPH, 30 minutes) | RAT MICROSOMAL STABILITY (% REMAINING AFTER 30 MINUTES) ([2]; rat liver microsomes (Sprague-Dawley), 0.5 μM substrate, 0.25 mg/mL microsomal protein, pH 7.4, 37° C., NADPH, 30 minutes)
15 | 1.6 µM | – | >85% | >85% | NC1CCCC1C(O)C1(c2cccc(C(F)(F)F)c2)CCC1 (stereo not drawn) [Example 204, (2-aminocyclopentyl) {1-[3-(trifluoromethyl)phenyl]cyclobutyl}methanol] | – | –
16 | 1.4 µM | – | 13% | 15% | O[C@H](c1ccccn1)C1(c2ccc(C(F)(F)F)cc2F)CCC1 [Example 27, (S)-{1-[2-fluoro-4-(trifluoromethyl)phenyl]cyclobutyl}(pyridin-2-yl)-methanol] | – | –
17 | 1.98 µM | – | 45% | 65% | O[C@@H](c1ccccn1)C1(c2ccc(OC(F)(F)F)cc2)CC(F)(F)C1 [Example 159, (R)-{3,3-difluoro-1-[4-(trifluoromethoxy)phenyl]cyclobutyl}(pyridin-2-yl)-methanol] | – | –
18 | 1.5 µM | – | 0.38% | 0.48% | OC(c1ccccn1)C1(c2ccccc2F)CCC1 (stereo not drawn) [Example 1, [1-(2-fluorophenyl)cyclobutyl](pyridin-2-yl)methanol] | – | –
19 | 0.79 µM | – | >85% | <0.01% | N[C@H]1CCC[C@H]1[C@@H](O)C1(c2ccccc2F)CCC1 [Example 226, (R)-[(1R,2S)-2-aminocyclopentyl][1-(2-fluorophenyl)cyclobutyl]methanol] | – | –
20 | 3.24 µM | – | >85% | 72% | NC1CCC1C(O)C1(c2cccc(C(F)(F)F)c2)CCC1 (stereo not drawn) [Example 213, (2-aminocyclobutyl) {1-[3-(trifluoromethyl)phenyl]cyclobutyl}methanol] | – | –
21 | 0.94 µM | – | 44% | 0.74% | OC(CC1(c2ccc(C(F)(F)F)cc2)CCC1)c1ccccn1 (stereo not drawn) [Example 75, 1-(pyridin-2-yl)-2-{1-[4-(trifluoromethyl)phenyl]cyclobutyl}ethanol] | – | –
22 | 2.13 µM | – | 66% | 82% | O=C1CC(c2ccc(F)c(Cl)c2)([C@H](O)c2ccccn2)C1 (single isomer, unassigned) [Example 268] | – | –
23 | 1.1 µM | – | 21% | 13% | OC(c1ccccn1)C1(c2ccc(C(F)(F)F)c(F)c2)CCC1 (stereo not drawn) [Example 17] | – | –
